Results on 16 compounds are retold here after US11530221B2, “Pyrimido[4,5-d]pyrimidin-2-one derivatives as protein kinase inhibitors” (KOREA INSTITUTE OF SCIENCE AND TECHNOLOGY, priority 2019, dated 2022).

Read-outs that look alike come from different tables or passages of the source. Square brackets hold non-standard residues; d marks the D form. Peptide text beside a SMILES is read from it. * marks the point of attachment. X1 = Cc1ccc(Nc2ncc3c(n2)N(C)C(=O)N(c2cc(C(=O)*)ccc2C)C3)cn1; Chg = N[C@H](C(=O)O)C1CCCCC1; Aze = O=C(O)[C@@H]1CCN1; Nva = CCC[C@H](N)C(=O)O; Aib = CC(C)(N)C(=O)O

What all share (type): biochemical
Assay [1] addresses p38a/MAPK14 (Homo sapiens, UniProt Q16539). Briefly: IC50 inhibitory activity against p38a/MAPK14 kinase. As to conditions: read-out: p38a/MAPK14 IC50. The protocol:
(§1) IC50 values were calculated by measuring the inhibitory activity against LCK, c-Src, p38a/MAPK14, ABL1, DDR1 and FGR kinases of the compounds of the present invention.

Assay [2] has as its target ABL1 (Homo sapiens, UniProt P00519). In words: IC50 inhibitory activity against ABL1 kinase. The protocol: as §1
Assay [3] concerns the target ABL1 (T315I) (Homo sapiens, UniProt P00519, T315I). In words: IC50 inhibitory activity against ABL1 (T315I) kinase. To be noted: read-out: ABL1 (T315I) IC50. The protocol: as §1
The target of assay [4] is LCK (Homo sapiens, UniProt P06239). In words: IC50 inhibitory activity against LCK kinase. The protocol:
as §1

Assay [5] has as its target c-Src (Homo sapiens, UniProt P12931). Briefly: IC50 inhibitory activity against c-Src kinase. The protocol:
as §1

Chain of c-Src (P12931 whole entry): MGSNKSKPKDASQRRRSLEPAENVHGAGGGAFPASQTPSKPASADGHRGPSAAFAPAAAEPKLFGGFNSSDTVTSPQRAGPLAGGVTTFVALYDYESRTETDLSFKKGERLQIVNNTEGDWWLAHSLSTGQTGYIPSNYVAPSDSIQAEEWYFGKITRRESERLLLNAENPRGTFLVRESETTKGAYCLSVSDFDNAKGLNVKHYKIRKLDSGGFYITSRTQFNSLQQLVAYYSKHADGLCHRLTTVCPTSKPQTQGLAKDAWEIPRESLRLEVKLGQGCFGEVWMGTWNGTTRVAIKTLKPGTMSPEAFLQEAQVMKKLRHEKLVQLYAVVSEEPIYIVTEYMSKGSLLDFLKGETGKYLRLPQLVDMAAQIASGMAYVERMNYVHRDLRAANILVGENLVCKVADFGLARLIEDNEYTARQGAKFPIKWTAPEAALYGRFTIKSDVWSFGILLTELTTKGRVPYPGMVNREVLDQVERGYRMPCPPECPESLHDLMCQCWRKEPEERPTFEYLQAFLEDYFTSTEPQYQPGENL
Chain of LCK (P06239 whole entry): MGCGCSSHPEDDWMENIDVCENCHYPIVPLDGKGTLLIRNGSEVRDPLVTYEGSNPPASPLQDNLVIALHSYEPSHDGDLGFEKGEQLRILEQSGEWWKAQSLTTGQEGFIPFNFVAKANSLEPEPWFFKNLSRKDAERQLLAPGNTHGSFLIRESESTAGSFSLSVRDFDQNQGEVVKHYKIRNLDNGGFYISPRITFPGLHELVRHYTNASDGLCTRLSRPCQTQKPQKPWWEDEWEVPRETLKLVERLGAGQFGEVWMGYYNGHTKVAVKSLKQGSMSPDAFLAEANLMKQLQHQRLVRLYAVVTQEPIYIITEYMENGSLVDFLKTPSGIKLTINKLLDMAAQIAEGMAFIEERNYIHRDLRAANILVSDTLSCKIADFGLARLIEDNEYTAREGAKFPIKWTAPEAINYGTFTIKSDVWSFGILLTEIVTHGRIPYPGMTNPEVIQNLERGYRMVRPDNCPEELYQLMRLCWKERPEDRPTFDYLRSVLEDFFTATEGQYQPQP
Chain of p38a/MAPK14 (Q16539 whole entry): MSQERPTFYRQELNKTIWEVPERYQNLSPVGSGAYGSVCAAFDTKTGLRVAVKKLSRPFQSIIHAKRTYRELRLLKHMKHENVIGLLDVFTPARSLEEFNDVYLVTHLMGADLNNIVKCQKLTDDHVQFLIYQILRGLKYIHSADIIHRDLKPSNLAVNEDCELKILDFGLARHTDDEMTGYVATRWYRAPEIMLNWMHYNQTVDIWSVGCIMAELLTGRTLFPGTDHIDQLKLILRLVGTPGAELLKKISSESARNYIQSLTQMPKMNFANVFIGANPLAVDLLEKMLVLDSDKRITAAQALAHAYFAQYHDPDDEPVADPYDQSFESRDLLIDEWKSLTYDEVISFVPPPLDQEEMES

`Cc1ccc(Nc2ncc3c(n2)N(C)C(=O)N(c2cc(NC(=O)[C@H](CC(C)C)NC(=O)c4ccc([N+](=O)[O-])c(OCC(C)C)c4)ccc2C)C3)cn1` [Example 54, (S)-3-isobutoxy-N-(4-methyl-1-((4-methyl-3-(1-methyl-7-((6-methylpyridin-3-yl)amino)-2-oxo-1,4-dihydropyrimido[4,5-d]pyrimidin-3(2H)-yl)phenyl)amino)-1-oxopentan-2-yl)-4-nitrobenzamide]: the IC50 in assay [1] was over 600 nM; in assay [2] (read-out: ABL1 IC50) it was 1 to 200 nM; in assay [3] it was over 600 nM.
In the case of `COc1ccc(CCOc2cc(C(=O)N[C@@H](C)C(=O)Nc3ccc(C)c(N4Cc5cnc(Nc6ccc(C)nc6)nc5N(C)C4=O)c3)ccc2[N+](=O)[O-])cc1` [Example 56], the IC50 was over 600 nM in assay [1] and 1 to 200 nM in assay [2] (read-out: ABL1 IC50).
On to `CC[C@H](C)[C@H](NC(=O)c1ccc(C)c(N2Cc3cnc(Nc4ccc(C)nc4)nc3N(C)C2=O)c1)C(=O)N1CCC[C@H]1C(=O)NC(C)(C)C(=O)N[C@@H](CC(C)C)C(=O)N(C)C` [Example 16, (S)—N-(1-(((S)-1-(dimethylamino)-4-methyl-1-oxopentan-2-yl)amino)-2-methyl-1-oxopropan-2-yl)-1-((4-methyl-3-(1-methyl-7-((6-methylpyridin-3-yl)amino)-2-oxo-1,4-dihydropyrimido[4,5-d]pyrimidin-3(2H)-yl)benzoyl)-L-isoleucyl)pyrrolidine-2-carboxamide] (X1-IP[Aib]L-NMe2), for which the IC50 was in the range of 1 to 200 nM in assay [2] (read-out: ABL1 IC50), 1 to 200 nM in assay [4] (read-out: LCK IC50) and 200 to 400 nM in assay [5] (read-out: c-Src IC50).
`Cc1ccc(Nc2ncc3c(n2)N(C)C(=O)N(c2cc(NC(=O)[C@H](C)NC(=O)c4ccc([N+](=O)[O-])c(OCC(C)C)c4)ccc2C)C3)cn1` [Example 53, (S)-3-isobutoxy-N-(1-((4-methyl-3-(1-methyl-7-((6-methylpyridin-3-yl)amino)-2-oxo-1,4-dihydropyrimido[4,5-d]pyrimidin-3(2H)-yl)phenyl)amino)-2-oxopropan-2-yl)-4-nitrobenzamide]: the IC50 in assay [1] and in assay [2] (read-out: ABL1 IC50) was over 600 nM each time.
With `Cc1ccc(Nc2ncc3c(n2)N(C)C(=O)N(c2cc(C(=O)N4C[C@@H](C(=O)NCCc5c[nH]c6ccccc56)[C@H](C(=O)NCc5ccc(Cl)cc5)C4)ccc2C)C3)cn1` [Example 48, (3S,4S)—N^3-(2-(1H-indol-3-yl)ethyl)-N^4-(4-chlorobenzyl)-1-(4-methyl-3-(1-methyl-7-((6-methylpyridin-3-yl)amino)-2-oxo-1,4-dihydropyrimido[4,5-d]pyrimidin-3(2H)-yl)benzoyl)pyrrolidine-3,4-dicarboxamide], the IC50 lay in the range of 400 to 600 nM in assay [1], 1 to 200 nM in assay [2] (read-out: ABL1 IC50), 1 to 200 nM in assay [4] (read-out: LCK IC50) and 1 to 200 nM in assay [5] (read-out: c-Src IC50).
`Cc1ccc(Nc2ncc3c(n2)N(C)C(=O)N(c2cc(C(=O)N[C@@H](CC(C)C)C(=O)N4CCC[C@H]4C(=O)NC(C)(C)C(=O)N[C@@H](CC(C)C)C(=O)N(C)C)ccc2C)C3)cn1` [Example 20, (S)—N-(1-(((S)-1-(dimethylamino)-4-methyl-1-oxopentan-2-yl)amino)-2-methyl-1-oxopropan-2-yl)-1-((4-methyl-3-(1-methyl-7-((6-methylpyridin-3-yl)amino)-2-oxo-1,4-dihydropyrimido[4,5-d]pyrimidin-3(2H)-yl)benzoyl)-L-lucyl)pyrrolidine-2-carboxamide] (X1-LP[Aib]L-NMe2): the IC50 in assay [2], in assay [4] and in assay [5] was 1 to 200 nM each time.
Take `Cc1ccc(Nc2ncc3c(n2)N(C)C(=O)N(c2cc(C(=O)NCC(=O)N4CCC[C@H]4C(=O)NC(C)(C)C(=O)N[C@@H](CC(C)C)C(=O)N(C)C)ccc2C)C3)cn1` [Example 18, (S)—N-(1-(((S)-1-(dimethylamino)-4-methyl-1-oxopentan-2-yl)amino)-2-methyl-1-oxopropan-2-yl)-1-((4-methyl-3-(1-methyl-7-((6-methylpyridin-3-yl)amino)-2-oxo-1,4-dihydropyrimido[4,5-d]pyrimidin-3(2H)-yl)benzoyl)glycyl)pyrrolidine-2-carboxamide] (X1-GP[Aib]L-NMe2): the results for the IC50 in assay [2], in assay [4] and in assay [5] were 1 to 200 nM, 200 to 400 nM and 400 to 600 nM, respectively.
As for `Cc1ccc(Nc2ncc3c(n2)N(C)C(=O)N(c2cc(C(=O)N4C[C@@H](C(=O)NCc5ccccc5)[C@H](C(=O)NCc5ccc(Cl)cc5)C4)ccc2C)C3)cn1` [Example 47, (3S,4S)—N^3-benzyl-N^4-(4-chlorobenzyl)-1-(4-methyl-3-(1-methyl-7-((6-methylpyridin-3-yl)amino)-2-oxo-1,4-dihydropyrimido[4,5-d]pyrimidin-3(2H)-yl)benzoyl)pyrrolidine-3,4-dicarboxamide], the IC50 in assay [1], in assay [2] (read-out: ABL1 IC50), in assay [4] (read-out: LCK IC50) and in assay [5] (read-out: c-Src IC50) was 1 to 200 nM throughout.
Regarding `Cc1ccc(Nc2ncc3c(n2)N(C)C(=O)N(c2cc(C(=O)N[C@H](C(=O)N4CCC[C@H]4C(=O)NC(C)(C)C(=O)N[C@@H](CC(C)C)C(=O)N(C)C)C4CCCCC4)ccc2C)C3)cn1` [Example 19, (S)-1-((S)-2-cyclohexyl-2-((4-methyl-3-(1-methyl-7-((6-methylpyridin-3-yl)amino)-2-oxo-1,4-dihydropyrimido[4,5-d]pyrimidin-3(2H)-yl)benzamido)acetyl)-N-(1-(((S)-1-dimethylamino)-4-methyl-1-oxopentan-2-yl)amino)-2-methyl-1-oxopropan-2-yl]pyrrolidine-2-carboxamide] (X1-[Chg]P[Aib]L-NMe2), the figures for the IC50 in assay [2], in assay [4] and in assay [5] were 200 to 400 nM, 1 to 200 nM and 400 to 600 nM, respectively.
Regarding `CCC[C@H](NC(=O)c1ccc(C)c(N2Cc3cnc(Nc4ccc(C)nc4)nc3N(C)C2=O)c1)C(=O)N1CCC[C@H]1C(=O)NC(C)(C)C(=O)N[C@@H](CC(C)C)C(=O)N(C)C` [Example 21, (S)—N-(1-(((S)-1-(dimethylamino)-4-methyl-1-oxopentan-2-yl)amino)-2-methyl-1-oxopropan-2-yl)-1-((S)-2-(4-methyl-3-(1-methyl-7-((6-methylpyridin-3-yl)amino)-2-oxo-1,4-dihydropyrimido[4,5-d]pyrimidin-3(2H)-yl)benzamido)pentanoyl)pyrrolidine-2-carboxamide] (X1-[Nva]P[Aib]L-NMe2), the IC50 in assay [2] lay in the range of 1 to 200 nM; in assay [4], 1 to 200 nM; in assay [5], 400 to 600 nM.
`Cc1ccc(Nc2ncc3c(n2)N(C)C(=O)N(c2cc(NC(=O)c4ccc([N+](=O)[O-])c(OCCc5c[nH]c6ccccc56)c4)ccc2C)C3)cn1` [Example 50, 3-(2-(1H-indol-3-yl)ethoxy)-N-(4-methyl-3-(1-methyl-7-((6-methylpyridin-3-yl)amino)-2-oxo-1,4-dihydropyrimido[4,5-d]pyrimidin-3(2H)-yl)phenyl)-4-nitrobenzamide]: the IC50 in assay [1] fell in the range of 200 to 400 nM; in assay [2] (read-out: ABL1 IC50), 1 to 200 nM.
`Cc1ccc(Nc2ncc3c(n2)N(C)C(=O)N(c2cc(C(=O)N[C@H](C(=O)N4CC[C@H]4C(=O)NC(C)(C)C(=O)N[C@@H](CC(C)C)C(=O)N(C)C)C(C)C)ccc2C)C3)cn1` [Example 15, (S)—N-(1-(((S)-1-(dimethylamino)-4-methyl-1-oxopentan-2-yl)amino)-2-methyl-1-oxopropan-2-yl)-1-((4-methyl-3-(1-methyl-7-((6-methylpyridin-3-yl)amino)-2-oxo-1,4-dihydropyrimido[4,5-d]pyrimidin-3(2H)-yl)benzoyl)-L-valyl)azetidine-2-carboxamide] (X1-V[Aze][Aib]L-NMe2): the figures for the IC50 in assay [2], in assay [4] and in assay [5] were 1 to 200 nM, 200 to 400 nM and over 600 nM, respectively.
`Cc1ccc(Nc2ncc3c(n2)N(C)C(=O)N(c2cc(NC(=O)[C@@H]4CN(C(=O)OCC(Cl)(Cl)Cl)C[C@H]4C(=O)NCc4ccc(Cl)cc4)ccc2C)C3)cn1` [Example 57, 2,2,2-trichloroethyl (3S,4S)-3-((4-chlorobenzyl)carbamoyl)-4-((4-methyl-3-(1-methyl-7-((6-methylpyridin-3-yl)amino)-2-oxo-1,4-dihydropyrimido[4,5-d]pyrimidin-3(2H)-yl)phenyl)carbamoyl)pyrrolidine-1-carboxylate]: the IC50 in assay [1], in assay [2] (read-out: ABL1 IC50), in assay [4] (read-out: LCK IC50) and in assay [5] (read-out: c-Src IC50) was 1 to 200 nM each time.
Consider `Cc1ccc(Nc2ncc3c(n2)N(C)C(=O)N(c2cc(NC(=O)c4ccc([N+](=O)[O-])c(OCC(C)C)c4)ccc2C)C3)cn1` [Example 49, 3-isobutoxy-N-(4-methyl-3-(1-methyl-7-((6-methylpyridin-3-yl)amino)-2-oxo-1,4-dihydropyrimido[4,5-d]pyrimidin-3(2H)-yl)phenyl)-4-nitrobenzamide], for which the IC50 in assay [1] is 1 to 200 nM; in assay [2] (read-out: ABL1 IC50), 1 to 200 nM; in assay [3] it was over 600 nM.
In the case of `COc1ccc(CCOc2cc(C(=O)Nc3ccc(C)c(N4Cc5cnc(Nc6ccc(C)nc6)nc5N(C)C4=O)c3)ccc2[N+](=O)[O-])cc1` [Example 51, 3-(4-methoxyphenethoxy)-N-(4-methyl-3-(1-methyl-7-((6-methylpyridin-3-yl)amino)-2-oxo-1,4-dihydropyrimido[4,5-d]pyrimidin-3(2H)-yl)phenyl)-4-nitrobenzamide], the IC50 in assay [1], in assay [2] (read-out: ABL1 IC50) and in assay [4] (read-out: LCK IC50) was 1 to 200 nM each time.
As to `Cc1ccc(Nc2ncc3c(n2)N(C)C(=O)N(c2cc(NC(=O)CNC(=O)c4ccc([N+](=O)[O-])c(OCC(C)C)c4)ccc2C)C3)cn1` [Example 52, 3-isobutoxy-N-(2-((4-methyl-3-(1-methyl-7-((6-methylpyridin-3-yl)amino)-2-oxo-1,4-dihydropyrimido[4,5-d]pyrimidin-3(2H)-yl)phenyl)amino)-2-oxoethyl)-4-nitrobenzamide], the IC50 is 400 to 600 nM in assay [1], 1 to 200 nM in assay [2] (read-out: ABL1 IC50) and over 600 nM in assay [3].
